Assay results: US7754946B2, “Stem-regulated, plant defense promoter and uses thereof in tissue-specific expression in monocots” (The Texas A&M University System, priority 2003, dated 2010)

Tested on: JAS
Experiment: Microarray of JAS cDNA clones after spraying sugarcane plants with defense-inducing agents
Assay type: in vivo
Details: treated v. untreated plant
Method: The 251 cDNA clones used for microarray analysis in Example 1 were further used to assess the effects of defense-inducing agents on the expression of the stem-specific genes.
Total RNA was extracted from wild type sugarcane plants (3 months-old) that were sprayed with the defense-inducing agents jasmonic acid (JA) (25·mu·M in 0.05.percent.Tween 20), methyl-jasmonate (MeJA) (200·mu·M in 0.1.percent.ethanol and 0.05.percent.Tween 20) or salicylic acid (SA) (5 mM in 0.05.percent.Tween 20) for two time periods, 24 and 48 hours. The microarray including 251 cDNAs was probed with fluorescently labeled cDNAs synthesized from 1·mu·g of total amplified RNA. One cDNA probe (e.g. RNA from plant treated with a defense-inducing agent) is labeled with one dye (Cy5), and the second (e.g. RNA from untreated control plant) with another dye (Cy3)
Microarray data was analyzed using GeneSpring analysis software. Data were normalized using an endogenous constitutive gene. The normalized ratio of Cy5 v.

## CC/C=C\C[C@H]1C(=O)CC[C@@H]1CC(=O)O [JA, jasmonic acid]
Clone 2I1, JA 25 μM spray, 24 hours
  Cy5/Cy3 Ratios (Upregulation) for JAS: 0.59
Clone 2I1, JA 25 μM spray, 48 hours
  Cy5/Cy3 Ratios (Upregulation) for JAS: 2.10
Clone 4Q3, JA 25 μM spray, 24 hours
  Cy5/Cy3 Ratios (Upregulation) for JAS: 0.41
Clone 4Q3, JA 25 μM spray, 48 hours
  Cy5/Cy3 Ratios (Upregulation) for JAS: 2.12
Clone 5P22, JA 25 μM spray, 24 hours
  Cy5/Cy3 Ratios (Upregulation) for JAS: 0.41
Clone 5P22, JA 25 μM spray, 48 hours
  Cy5/Cy3 Ratios (Upregulation) for JAS: 2.10
Clone 6H10, JA 25 μM spray, 24 hours
  Cy5/Cy3 Ratios (Upregulation) for JAS: 0.42
Clone 6H10, JA 25 μM spray, 48 hours
  Cy5/Cy3 Ratios (Upregulation) for JAS: 2.19
Clone 10P7, JA 25 μM spray, 24 hours
  Cy5/Cy3 Ratios (Upregulation) for JAS: 0.59
Clone 10P7, JA 25 μM spray, 48 hours
  Cy5/Cy3 Ratios (Upregulation) for JAS: 2.10
Clone 12F18, JA 25 μM spray, 24 hours
  Cy5/Cy3 Ratios (Upregulation) for JAS: 0.51
Clone 12F18, JA 25 μM spray, 48 hours
  Cy5/Cy3 Ratios (Upregulation) for JAS: 1.64
Clone 13F16, JA 25 μM spray, 24 hours
  Cy5/Cy3 Ratios (Upregulation) for JAS: 0.51
Clone 13F16, JA 25 μM spray, 48 hours
  Cy5/Cy3 Ratios (Upregulation) for JAS: 2.21
Clone 17C11, JA 25 μM spray, 24 hours
  Cy5/Cy3 Ratios (Upregulation) for JAS: 0.35
Clone 17C11, JA 25 μM spray, 48 hours
  Cy5/Cy3 Ratios (Upregulation) for JAS: 2.12
Clone 18H16, JA 25 μM spray, 24 hours
  Cy5/Cy3 Ratios (Upregulation) for JAS: 1.90
Clone 18H16, JA 25 μM spray, 48 hours
  Cy5/Cy3 Ratios (Upregulation) for JAS: 1.40
Clone 20F18, JA 25 μM spray, 24 hours
  Cy5/Cy3 Ratios (Upregulation) for JAS: 0.34
Clone 20F18, JA 25 μM spray, 48 hours
  Cy5/Cy3 Ratios (Upregulation) for JAS: 2.00
Clone 20G16, JA 25 μM spray, 24 hours
  Cy5/Cy3 Ratios (Upregulation) for JAS: 0.85
Clone 20G16, JA 25 μM spray, 48 hours
  Cy5/Cy3 Ratios (Upregulation) for JAS: 1.30
Clone 24G4, JA 25 μM spray, 24 hours
  Cy5/Cy3 Ratios (Upregulation) for JAS: 0.41
Clone 24G4, JA 25 μM spray, 48 hours
  Cy5/Cy3 Ratios (Upregulation) for JAS: 1.14
Clone 25K14, JA 25 μM spray, 24 hours
  Cy5/Cy3 Ratios (Upregulation) for JAS: 1.73
Clone 25K14, JA 25 μM spray, 48 hours
  Cy5/Cy3 Ratios (Upregulation) for JAS: 1.65

## CC/C=C\CC1C(=O)CCC1CC(=O)OC (stereo not shown) [MeJA, methyl-jasmonate]
Clone 2I1, MeJA 200 μM spray, 24 hours
  Cy5/Cy3 Ratios (Upregulation) for JAS: 0.27
Clone 2I1, MeJA 200 μM spray, 48 hours
  Cy5/Cy3 Ratios (Upregulation) for JAS: 0.22
Clone 4Q3, MeJA 200 μM spray, 24 hours
  Cy5/Cy3 Ratios (Upregulation) for JAS: 0.15
Clone 4Q3, MeJA 200 μM spray, 48 hours
  Cy5/Cy3 Ratios (Upregulation) for JAS: 0.18
Clone 5P22, MeJA 200 μM spray, 24 hours
  Cy5/Cy3 Ratios (Upregulation) for JAS: 0.16
Clone 5P22, MeJA 200 μM spray, 48 hours
  Cy5/Cy3 Ratios (Upregulation) for JAS: 0.17
Clone 6H10, MeJA 200 μM spray, 24 hours
  Cy5/Cy3 Ratios (Upregulation) for JAS: 0.15
Clone 6H10, MeJA 200 μM spray, 48 hours
  Cy5/Cy3 Ratios (Upregulation) for JAS: 0.19
Clone 10P7, MeJA 200 μM spray, 24 hours
  Cy5/Cy3 Ratios (Upregulation) for JAS: 0.13
Clone 10P7, MeJA 200 μM spray, 48 hours
  Cy5/Cy3 Ratios (Upregulation) for JAS: 0.15
Clone 12F18, MeJA 200 μM spray, 24 hours
  Cy5/Cy3 Ratios (Upregulation) for JAS: 0.20
Clone 12F18, MeJA 200 μM spray, 48 hours
  Cy5/Cy3 Ratios (Upregulation) for JAS: 0.21
Clone 13F16, MeJA 200 μM spray, 24 hours
  Cy5/Cy3 Ratios (Upregulation) for JAS: 0.25
Clone 13F16, MeJA 200 μM spray, 48 hours
  Cy5/Cy3 Ratios (Upregulation) for JAS: 0.34
Clone 17C11, MeJA 200 μM spray, 24 hours
  Cy5/Cy3 Ratios (Upregulation) for JAS: 0.17
Clone 17C11, MeJA 200 μM spray, 48 hours
  Cy5/Cy3 Ratios (Upregulation) for JAS: 0.17
Clone 18H16, MeJA 200 μM spray, 24 hours
  Cy5/Cy3 Ratios (Upregulation) for JAS: 3.00
Clone 18H16, MeJA 200 μM spray, 48 hours
  Cy5/Cy3 Ratios (Upregulation) for JAS: 0.79
Clone 20F18, MeJA 200 μM spray, 24 hours
  Cy5/Cy3 Ratios (Upregulation) for JAS: 0.16
Clone 20F18, MeJA 200 μM spray, 48 hours
  Cy5/Cy3 Ratios (Upregulation) for JAS: 0.18
Clone 20G16, MeJA 200 μM spray, 24 hours
  Cy5/Cy3 Ratios (Upregulation) for JAS: 0.50
Clone 20G16, MeJA 200 μM spray, 48 hours
  Cy5/Cy3 Ratios (Upregulation) for JAS: 0.49
Clone 24G4, MeJA 200 μM spray, 24 hours
  Cy5/Cy3 Ratios (Upregulation) for JAS: 0.37
Clone 24G4, MeJA 200 μM spray, 48 hours
  Cy5/Cy3 Ratios (Upregulation) for JAS: 0.41
Clone 25K14, MeJA 200 μM spray, 24 hours
  Cy5/Cy3 Ratios (Upregulation) for JAS: 3.07
Clone 25K14, MeJA 200 μM spray, 48 hours
  Cy5/Cy3 Ratios (Upregulation) for JAS: 1.02

## O=C(O)c1ccccc1O [SA, salicylic acid]
Clone 2I1, SA 5 mM spray, 48 hours
  Cy5/Cy3 Ratios (Upregulation) for JAS: 16.92
Clone 4Q3, SA 5 mM spray, 48 hours
  Cy5/Cy3 Ratios (Upregulation) for JAS: 15.26
Clone 5P22, SA 5 mM spray, 48 hours
  Cy5/Cy3 Ratios (Upregulation) for JAS: 18.08
Clone 6H10, SA 5 mM spray, 48 hours
  Cy5/Cy3 Ratios (Upregulation) for JAS: 19.22
Clone 10P7, SA 5 mM spray, 48 hours
  Cy5/Cy3 Ratios (Upregulation) for JAS: 20.96
Clone 12F18, SA 5 mM spray, 48 hours
  Cy5/Cy3 Ratios (Upregulation) for JAS: 17.54
Clone 17C11, SA 5 mM spray, 48 hours
  Cy5/Cy3 Ratios (Upregulation) for JAS: 18.83
Clone 18H16, SA 5 mM spray, 48 hours
  Cy5/Cy3 Ratios (Upregulation) for JAS: 0.70
Clone 20F18, SA 5 mM spray, 48 hours
  Cy5/Cy3 Ratios (Upregulation) for JAS: 19.54
Clone 20G16, SA 5 mM spray, 48 hours
  Cy5/Cy3 Ratios (Upregulation) for JAS: 13.81
Clone 24G4, SA 5 mM spray, 48 hours
  Cy5/Cy3 Ratios (Upregulation) for JAS: 7.73
Clone 25K14, SA 5 mM spray, 48 hours
  Cy5/Cy3 Ratios (Upregulation) for JAS: 0.70
